Experimental findings from patent US8921373B2, “Compounds having TRPV1 antagonistic activity and uses thereof” (Shionogi & Co., Ltd., priority 2010, dated 2014) are described below.

Broadly, the IC50 is the midpoint of a concentration-inhibition curve.

In one data set the target is human recombinant TRPV1 (Homo sapiens (Human), UniProt Q8NER1). As to the kind of experiment: TRPV1 Capsaicin-Based Assay (Protocol 2, TRPV1/CHO cells, Fluo-4, FLIPR). Particulars: TRPV1/CHO cells, capsaicin 100 nM final; read-out: IC50 value by the Capsaicin-Based Assay. It is filed as cell-based. The gist of the method: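 CHO cells stably expressing human TRPV1 were loaded with 3 μM Fluo-4 for 1 h, then given compounds in HBSS/1 mM CaCl2/20 mM HEPES pH 7.4 with 1% DMSO for 2 min before 100 nM capsaicin (final). FLIPR fluorescence recorded over the full course; curves fitted.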
Chain of human recombinant TRPV1 (Q8NER1 whole entry): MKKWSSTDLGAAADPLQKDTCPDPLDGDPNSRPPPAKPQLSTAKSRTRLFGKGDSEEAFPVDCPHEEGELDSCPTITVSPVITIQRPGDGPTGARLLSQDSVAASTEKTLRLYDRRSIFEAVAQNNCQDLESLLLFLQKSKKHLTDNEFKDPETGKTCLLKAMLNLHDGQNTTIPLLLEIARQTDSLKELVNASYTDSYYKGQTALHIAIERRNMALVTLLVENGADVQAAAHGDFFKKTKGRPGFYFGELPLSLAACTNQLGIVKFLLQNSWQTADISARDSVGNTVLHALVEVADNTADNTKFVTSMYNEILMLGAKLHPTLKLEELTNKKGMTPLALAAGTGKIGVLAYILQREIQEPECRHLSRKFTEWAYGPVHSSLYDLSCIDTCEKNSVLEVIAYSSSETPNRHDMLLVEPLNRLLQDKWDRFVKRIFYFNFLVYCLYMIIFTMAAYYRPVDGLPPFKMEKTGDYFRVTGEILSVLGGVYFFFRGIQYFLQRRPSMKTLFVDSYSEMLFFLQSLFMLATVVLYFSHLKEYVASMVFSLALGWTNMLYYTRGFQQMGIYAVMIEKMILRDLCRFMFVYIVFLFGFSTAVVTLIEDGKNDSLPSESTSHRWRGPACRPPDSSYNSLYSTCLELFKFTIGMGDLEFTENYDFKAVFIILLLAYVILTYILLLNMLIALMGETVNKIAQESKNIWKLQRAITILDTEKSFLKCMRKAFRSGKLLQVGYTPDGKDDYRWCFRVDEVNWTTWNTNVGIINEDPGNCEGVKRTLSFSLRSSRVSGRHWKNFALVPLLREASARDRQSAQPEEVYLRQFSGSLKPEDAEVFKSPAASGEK

The nature of data set [1]: Measurement of body temperature increase (rectal body temperature). It is filed as in vivo, rat. To be noted: Crl/SD rats, oral, 1 mg/mL at 10 mL/kg.

In the case of `Cc1cc(NC(=O)N2CCC(F)(c3ncc(C[C@H](O)CO)cc3F)CC2)ccc1C(F)(F)F` [ACQ, (S)-4-(5-(2,3-dihydroxypropyl)-3-fluoropyridin-2-yl)-4-fluoro-N-(3-methyl-4-(trifluoromethyl)phenyl)piperidine-1-carboxamide], the IC50 at human recombinant TRPV1 was no more than 0.05 µM. For the same molecule, the Body temperature increase entry in data set [1] was “less than 0.5 °C”.
